According to patent US10294202B2, “Pyrrolidinones as herbicides” (FMC Corporation, priority 2013, dated 2019):

Assays:
rice [1] = assay: Test B flooded paddy test; type: in vivo, Oryza sativa; conditions: 500 g ai/ha, Flood; scale of 0 to 100 where 0 is no effect and 100 is complete control
Procedure, shortened: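 2-leaf plants; flood 3 cm over soil; compound into paddy water; depth held. Greenhouse 13–15 d. Visual rating vs controls, 0 (no effect) to 100 (complete control); dash = not tested.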

pigweed = assay: Test C pre-/postemergence herbicide test; type: in vivo, Amaranthus retroflexus
Procedure, shortened: (§1)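 Compound solutions contained surfactant in a non-phytotoxic solvent. These were sprayed onto pots of loam/sand sown with seeds, and onto young plants (2 to 18 cm, 1- to 4-leaf) in sphagnum peat–vermiculite mix. Visual injury scores (0 none, 100 complete control) were recorded after 13 to 15 days.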

foxtail, giant = assay: Test C pre-/postemergence herbicide test; type: in vivo, Setaria faberii
Procedure, shortened: as §1

sedge, umbrella = assay: Test C flooded paddy test; type: in vivo, Cyperus difformis; conditions: Flood, scale of 0 to 100 where 0 is no effect and 100 is complete control, 13 to 15 days
Procedure, shortened: (§2)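 Ratings reflect visual comparison with controls on a 0–100 scale, where 100 is complete control. Compound is dosed into standing paddy water 3 cm deep over 2-leaf-stage plants, kept in the greenhouse 13 to 15 days.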

wheat (winter wheat) = assay: Test C pre-/postemergence herbicide test; type: in vivo, Triticum aestivum
Procedure, shortened: as §1

galium = assay: Test C pre-/postemergence herbicide test; type: in vivo, Galium aparine
Procedure, shortened: as §1

wheat = assay: Test A pre-/postemergence herbicide test; type: in vivo, Triticum aestivum; conditions: Postemergence
Procedure, shortened: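 Formulated compound (non-phytotoxic solvent, surfactant) sprayed pre- onto soil of seeded loam/sand pots or post- onto seedlings at 1–2 leaves; ~10 d greenhouse; 0–100 visual control rating versus untreated.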

rice [2] = assay: Test C flooded paddy test; type: in vivo, Oryza sativa; conditions: Flood, scale of 0 to 100 where 0 is no effect and 100 is complete control, 13 to 15 days
Procedure, shortened: as §2

[3] = Postemergence, 31 g ai/ha, scale 0 to 100 (0 no effect, 100 complete control)
[4] = Postemergence, 62 g ai/ha, scale 0 (no effect) to 100 (complete control)
[5] = Postemergence, 125 g ai/ha, scale 0 to 100 (0 no effect, 100 complete control)
[6] = Postemergence, 250 g ai/ha, scale 0 to 100 (0 no effect, 100 complete control)
[7] = Preemergence, 31 g ai/ha, scale 0 to 100, 0 is no effect and 100 is complete control
[8] = Preemergence, 62 g ai/ha, scale 0 to 100 (0 no effect, 100 complete control)
[9] = Preemergence, 125 g ai/ha, scale 0 to 100
[10] = Preemergence, 125 g ai/ha, scale 0 to 100 (0 no effect, 100 complete control)

O=C1NCC(c2cccc(OC(F)F)c2)C1C(=O)Nc1cccc(F)c1F (stereo not shown) [Compound 324]
0: Plant response rating, Pigweed (pigweed; [3]) | Plant response rating, Foxtail, Giant (foxtail, giant; [3]) | Plant response rating, Sedge, Umbrella (sedge, umbrella; 31 g ai/ha) | Plant response rating, Sedge, Umbrella (sedge, umbrella; 62 g ai/ha) | Plant response rating, Sedge, Umbrella (sedge, umbrella; 125 g ai/ha) | Plant response rating, Sedge, Umbrella (sedge, umbrella; 250 g ai/ha) | Plant response rating, Wheat (wheat (winter wheat); [3]) | Plant response rating, Wheat (wheat (winter wheat); [4]) | Plant response rating, Wheat (wheat (winter wheat); [5]) | Plant response rating, Wheat (wheat (winter wheat); [6]) | Galium plant response rating (galium; [7]) | Plant response rating, Rice (rice [2]; 31 g ai/ha) | Plant response rating, Rice (rice [2]; 62 g ai/ha) | Plant response rating, Rice (rice [2]; 125 g ai/ha) | Plant response rating, Rice (rice [2]; 250 g ai/ha)
75: Pigweed plant response rating (pigweed; [8]) | Plant response rating, Foxtail, Giant (foxtail, giant; [5])
55: Plant response rating, Pigweed (pigweed; [6]) | Pigweed plant response rating (pigweed; [7])
95: Plant response rating, Foxtail, Giant (foxtail, giant; [9]) | Plant response rating (scale of 0 to 100), Foxtail, Giant (foxtail, giant; Preemergence, 250 g ai/ha)
60: Plant response rating, Foxtail, Giant (foxtail, giant; [6]) | Galium plant response rating (galium; [8])
90: Foxtail, Giant plant response rating (foxtail, giant; [7]) | Foxtail, Giant plant response rating (foxtail, giant; [8])
80: Plant response rating, Pigweed (pigweed; [9]) | Plant response rating, Wheat (wheat; 500 g ai/ha, 0 to 100 scale (0 no effect, 100 complete control))
85: Plant response rating, Galium (galium; [9]) | Plant response rating (scale of 0 to 100), Galium (galium; Preemergence, 250 g ai/ha)
10: Plant response rating, Foxtail, Giant (foxtail, giant; [4])
30: Plant response rating, Rice (rice [1]) | Plant response rating, Wheat (wheat; 125 g ai/ha, visual rating on 0 to 100 scale (0 no effect, 100 complete control), approx. 10 days)
25: Wheat plant response rating (wheat (winter wheat); [8])
35: Plant response rating, Pigweed (pigweed; [4])
65: Plant response rating, Pigweed (pigweed; [5]) | Plant response rating, Wheat (wheat (winter wheat); [9])

O=C1NCC(c2ccc(C(F)(F)F)cc2)C1C(=O)Nc1ccc(F)c(F)c1F (stereo not shown) [Compound 232]
80: Plant response rating, Pigweed (pigweed; [3]) | Plant response rating, Galium (galium; [4]) | Plant response rating, Galium (galium; [5]) | Plant response rating, Galium (galium; [6])
70: Plant response rating, Foxtail, Giant (foxtail, giant; [6])
90: Foxtail, Giant plant response rating (foxtail, giant; [8]) | Plant response rating, Foxtail, Giant (foxtail, giant; [10]) | Plant response rating, Galium (galium; [10]) | Plant response rating (scale of 0 to 100), Galium (galium; Preemergence, 250 g ai/ha)
20: Plant response rating, Rice (rice [1])
5: Plant response rating, Foxtail, Giant (foxtail, giant; [4]) | Plant response rating, Wheat (wheat (winter wheat); [5]) | Plant response rating, Wheat (wheat (winter wheat); [6]) | Plant response rating (scale of 0 to 100), Wheat (wheat (winter wheat); Preemergence, 250 g ai/ha)
15: Plant response rating, Foxtail, Giant (foxtail, giant; [5]) | Plant response rating, Rice (rice [2]; 250 g ai/ha)
85: Plant response rating, Pigweed (pigweed; [4]) | Plant response rating, Pigweed (pigweed; [5]) | Plant response rating, Pigweed (pigweed; [6]) | Pigweed plant response rating (pigweed; [7]) | Pigweed plant response rating (pigweed; [8]) | Plant response rating, Pigweed (pigweed; [10]) | Foxtail, Giant plant response rating (foxtail, giant; [7]) | Galium plant response rating (galium; [7]) | Galium plant response rating (galium; [8])
30: Plant response rating, Wheat (wheat; 125 g ai/ha, 0 to 100 scale, 0 is no effect, 100 is complete control)
75: Plant response rating, Galium (galium; [3])
0: Plant response rating, Foxtail, Giant (foxtail, giant; [3]) | Plant response rating, Sedge, Umbrella (sedge, umbrella; 31 g ai/ha) | Plant response rating, Sedge, Umbrella (sedge, umbrella; 62 g ai/ha) | Plant response rating, Sedge, Umbrella (sedge, umbrella; 125 g ai/ha) | Plant response rating, Sedge, Umbrella (sedge, umbrella; 250 g ai/ha) | Plant response rating, Wheat (wheat (winter wheat); [3]) | Plant response rating, Wheat (wheat (winter wheat); [4]) | Wheat plant response rating (wheat (winter wheat); [7]) | Wheat plant response rating (wheat (winter wheat); [8]) | Plant response rating, Wheat (wheat (winter wheat); [10]) | Plant response rating, Rice (rice [2]; 31 g ai/ha) | Plant response rating, Rice (rice [2]; 62 g ai/ha) | Plant response rating, Rice (rice [2]; 125 g ai/ha)
50: Wheat plant response rating (0 to 100 scale, 0 is no effect, 100 is complete control) (wheat; 500 g ai/ha)
95: Plant response rating (scale of 0 to 100), Pigweed (pigweed; Preemergence, 250 g ai/ha) | Plant response rating (scale of 0 to 100), Foxtail, Giant (foxtail, giant; Preemergence, 250 g ai/ha)
